Experimental findings from ChEMBL document CHEMBL1201862, “PubChem BioAssay data set” (2004) are described below.

Among the test systems are NCI-H522; HOP-92; ACHN; RPMI-8226; NCI-H226; KM12; SK-MEL-2; MDA-N; DU-145; PC-3; HT-29; 786-0; M14; NCI-H460; K562; TK-10; EKVX; SF-295; UACC-62; BT-549.
Assay in all cases: NCI anticancer screen, dose series, 48 h

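All cell lines were grown in 96-well plates and treated with compound for 48 hours. GI50 is the concentration that inhibits growth by half.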 The source made the active and inactive calls. Rule as the data show it: active = GI50 up to about 1.1 µM and inactive = higher.

Regarding `CCCCCCC(=O)OC[n+]1ccc2c(C)c3[nH]c4ccc(OC)cc4c3c(C)c2c1`, the GI50 was 0.303 µM (active) with NCI-H522; 1.18 µM (inactive) with HOP-92; 0.0656 µM (active) in the assay with ACHN; 0.0548 µM (active) in the assay on RPMI-8226; 0.476 µM (active) with NCI-H226; 0.186 µM (active) in the assay with KM12. Also, the GI50 was 1.33 µM (inactive) in the assay with SK-MEL-2; 0.324 µM (active) in the assay on MDA-N; 0.55 µM (active) with DU-145; 0.246 µM (active) in the assay on PC-3; 0.0664 µM (active) with HT-29; 0.0708 µM (active) in the assay on 786-0. Also, the GI50 in the assay on M14 was 0.703 µM (active); in the assay on NCI-H460, 0.0382 µM (active); in the assay on K562 it was 0.0611 µM (active); in the assay with TK-10, 2.05 µM (inactive); in the assay on EKVX, 0.8 µM (active); in the assay with SF-295, 0.277 µM (active). For the same compound, in the assay on UACC-62, the GI50 is 0.953 µM (active).

Turning to `CC(C)OCC(O)COc1cc(=O)oc2ccccc12` (centres undefined), the GI50 in the assay on NCI-H522, in the assay with HOP-92, with ACHN, in the assay with RPMI-8226, with KM12 and with SK-MEL-2 was > 100 µM (inactive) each time. The GI50 with MDA-N, in the assay with DU-145, in the assay on PC-3, in the assay on HT-29, in the assay on 786-0 and in the assay on M14 was > 100 µM (inactive) throughout. The GI50 in the assay with NCI-H460, in the assay with K562, in the assay on TK-10, with EKVX, in the assay with SF-295 and in the assay on UACC-62 was > 100 µM (inactive) each time.

`N#C/C(=C/NC(=S)c1ccncc1)C(N)=O`: the GI50 in the assay with HOP-92, with ACHN, in the assay on NCI-H226, with KM12, in the assay on SK-MEL-2 and in the assay with MDA-N was > 100 µM (inactive) each time. Besides, the GI50 in the assay on DU-145, in the assay with HT-29, in the assay with 786-0, with BT-549, in the assay on M14 and with NCI-H460 was > 100 µM (inactive) each time. For the same compound, the GI50 in the assay with TK-10, with EKVX, in the assay on SF-295 and in the assay on UACC-62 was > 100 µM (inactive) throughout.

Consider `COc1ccc2nc3cc(Cl)ccc3c(NCCCN(Cc3cc(OC)c(OC)c(OC)c3)Cc3cc(OC)c(OC)c(OC)c3)c2c1`, for which the GI50 was 9.48 µM (inactive) with NCI-H522; 10.1 µM (inactive) with HOP-92; 11.7 µM (inactive) with ACHN; 3.07 µM (inactive) in the assay on RPMI-8226; 14 µM (inactive) in the assay on NCI-H226; 13.8 µM (inactive) in the assay with KM12. Also, the GI50 was 25.1 µM (inactive) in the assay on SK-MEL-2; 12.8 µM (inactive) in the assay on DU-145; 10.4 µM (inactive) in the assay on PC-3; 2.31 µM (inactive) with HT-29; 12.1 µM (inactive) in the assay with 786-0; 14.1 µM (inactive) with BT-549. Also, the GI50 was 1.78 µM (inactive) in the assay on M14; 6.84 µM (inactive) with NCI-H460; 1.19 µM (inactive) with K562; 23.1 µM (inactive) in the assay on TK-10; 13.5 µM (inactive) in the assay on EKVX; 3.33 µM (inactive) in the assay on SF-295. Moreover, the GI50 in the assay with UACC-62 was 18.4 µM (inactive).

In the case of `O=C(O)C1C2CCC(C2)C1c1ccccc1` (centres undefined), the GI50 with NCI-H522, in the assay on HOP-92, in the assay on ACHN, with RPMI-8226, in the assay on NCI-H226 and in the assay with KM12 was > 100 µM (inactive) in each case. The GI50 in the assay with SK-MEL-2 was 55.5 µM (inactive); with MDA-N, > 100 µM (inactive); in the assay with DU-145, > 100 µM (inactive); with PC-3 it was > 100 µM (inactive); with HT-29, > 100 µM (inactive); with 786-0, > 100 µM (inactive). Further, the GI50 with M14, with NCI-H460, in the assay on K562, with TK-10, with EKVX and in the assay with SF-295 was > 100 µM (inactive) in each case. For the same compound, the GI50 in the assay with UACC-62 was > 100 µM (inactive).

In the case of `NC(=O)NNc1nc(-c2ccccc2)cs1`, the GI50 in the assay with NCI-H522, in the assay with ACHN, with RPMI-8226, in the assay on NCI-H226, in the assay with KM12 and in the assay with SK-MEL-2 was > 100 µM (inactive) in each case. Moreover, the GI50 in the assay on DU-145, in the assay with PC-3, in the assay with HT-29, in the assay with 786-0, in the assay with BT-549 and in the assay on M14 was > 100 µM (inactive) in each case. The GI50 with NCI-H460, in the assay on K562, in the assay on TK-10, in the assay with EKVX, with SF-295 and in the assay on UACC-62 was > 100 µM (inactive) in each case.

As for `Cc1cc(S(=O)(=O)[N-]/C(=N/S(=O)(=O)c2ccc(Cl)cc2)[n+]2ccc(N(C)C)cc2)c(SCC(=O)O)cc1Cl`, the GI50 in the assay with HOP-92 was 24.6 µM (inactive); with ACHN it was > 100 µM (inactive); with RPMI-8226, 71.1 µM (inactive); in the assay on NCI-H226, 52.7 µM (inactive); in the assay on KM12, > 100 µM (inactive); with DU-145, > 100 µM (inactive). Also, the GI50 in the assay with PC-3 was 69.5 µM (inactive); in the assay with HT-29, 57.5 µM (inactive); with 786-0 it was > 100 µM (inactive); with BT-549, > 100 µM (inactive); with M14, 25.2 µM (inactive); in the assay on NCI-H460, 42.8 µM (inactive). Also, the GI50 was 37.8 µM (inactive) with K562; 86.5 µM (inactive) in the assay on TK-10; 46.8 µM (inactive) in the assay with EKVX; 30.7 µM (inactive) in the assay on SF-295; 91.4 µM (inactive) with UACC-62.

Take `N=NCC(=O)OC(COCc1ccccc1)COCc1ccccc1`: the GI50 with NCI-H522 was > 100 µM (inactive); in the assay with HOP-92 it was 10.2 µM (inactive); in the assay on ACHN, 25.9 µM (inactive); in the assay with RPMI-8226, > 100 µM (inactive); with NCI-H226, > 100 µM (inactive); in the assay with KM12 it was 31.4 µM (inactive). The GI50 in the assay with SK-MEL-2 is > 100 µM (inactive); in the assay with DU-145, 36.3 µM (inactive); with PC-3 it was 70 µM (inactive); with HT-29, > 100 µM (inactive); with 786-0 it was > 100 µM (inactive); with BT-549, > 100 µM (inactive). In addition, the GI50 is 7.1 µM (inactive) with NCI-H460; 47 µM (inactive) in the assay on K562; > 100 µM (inactive) in the assay on TK-10; > 100 µM (inactive) in the assay on EKVX; 95.5 µM (inactive) in the assay with SF-295; > 100 µM (inactive) in the assay on UACC-62.

As for `Cc1ccc(S(=O)(=O)N/N=C2\C=CC3(CC2)C(=O)N(I)c2ccccc23)cc1` (centres undefined), the GI50 was 89.7 µM (inactive) with HOP-92; > 100 µM (inactive) in the assay with ACHN; 39.3 µM (inactive) in the assay with RPMI-8226; > 100 µM (inactive) in the assay on NCI-H226; 82.2 µM (inactive) in the assay on KM12; 48.1 µM (inactive) with SK-MEL-2. Further, the GI50 is 83 µM (inactive) in the assay on MDA-N; > 10 µM (inactive) in the assay with DU-145; 63.1 µM (inactive) in the assay with PC-3; > 100 µM (inactive) in the assay with HT-29; > 100 µM (inactive) in the assay on 786-0; > 100 µM (inactive) with M14. Also, the GI50 was 94.4 µM (inactive) in the assay on NCI-H460; 25.1 µM (inactive) with K562; > 100 µM (inactive) in the assay with TK-10; > 100 µM (inactive) with EKVX; 41.5 µM (inactive) in the assay with SF-295; > 100 µM (inactive) with UACC-62.

For `COc1ccc(CCN2CCOCC2)cc1`, the GI50 in the assay on NCI-H522, in the assay with HOP-92, in the assay on ACHN, in the assay with RPMI-8226, in the assay on NCI-H226 and in the assay with KM12 was > 100 µM (inactive) in each case. The GI50 in the assay on SK-MEL-2, in the assay on MDA-N, in the assay on DU-145, with PC-3, in the assay on HT-29 and in the assay with 786-0 was > 100 µM (inactive) in each case. Further, the GI50 in the assay on M14, with NCI-H460, in the assay with K562, in the assay with TK-10, in the assay on EKVX and with SF-295 was > 100 µM (inactive) in each case. Further, the GI50 with UACC-62 is > 100 µM (inactive).

`COc1cc2nc(-c3cccs3)nc(N3C(c4cc(OC)c(OC)c(OC)c4)=NNC(=O)c4ccccc43)c2cc1OC`: the GI50 was 38 µM (inactive) in the assay with NCI-H522; 78.5 µM (inactive) in the assay on HOP-92; 44.1 µM (inactive) in the assay on ACHN; > 100 µM (inactive) with NCI-H226; 18.5 µM (inactive) in the assay on KM12; 76 µM (inactive) in the assay with SK-MEL-2. Besides, the GI50 in the assay with DU-145 is 29 µM (inactive); with PC-3 it was 29.6 µM (inactive); in the assay on HT-29, 23.3 µM (inactive); in the assay on 786-0 it was 35.6 µM (inactive); in the assay on BT-549, 18.9 µM (inactive); with M14, 15.3 µM (inactive). For the same compound, the GI50 with NCI-H460 is 4.82 µM (inactive); with K562, 8.34 µM (inactive); with TK-10, 22.8 µM (inactive); with EKVX it was 30.8 µM (inactive); in the assay on SF-295 it was 17.9 µM (inactive); in the assay on UACC-62, 17.4 µM (inactive).
